Literature values as cited in US11802256B2, “Method for extracting palmitoleic acid from macadamia integrifolia and use thereof” (SOUTHWEST FORESTRY UNIVERSITY, priority 2021, dated 2023).

Experiments:
tyrosinase = biological target: T1, tyrosinase (Mus musculus, UniProt P11344); conditions: mouse melanocytes, at a protein level
T1 construct: host or cells: mouse melanocytes / mouse melanoma cells (endogenous)
T1 sequence (P11344 19-533): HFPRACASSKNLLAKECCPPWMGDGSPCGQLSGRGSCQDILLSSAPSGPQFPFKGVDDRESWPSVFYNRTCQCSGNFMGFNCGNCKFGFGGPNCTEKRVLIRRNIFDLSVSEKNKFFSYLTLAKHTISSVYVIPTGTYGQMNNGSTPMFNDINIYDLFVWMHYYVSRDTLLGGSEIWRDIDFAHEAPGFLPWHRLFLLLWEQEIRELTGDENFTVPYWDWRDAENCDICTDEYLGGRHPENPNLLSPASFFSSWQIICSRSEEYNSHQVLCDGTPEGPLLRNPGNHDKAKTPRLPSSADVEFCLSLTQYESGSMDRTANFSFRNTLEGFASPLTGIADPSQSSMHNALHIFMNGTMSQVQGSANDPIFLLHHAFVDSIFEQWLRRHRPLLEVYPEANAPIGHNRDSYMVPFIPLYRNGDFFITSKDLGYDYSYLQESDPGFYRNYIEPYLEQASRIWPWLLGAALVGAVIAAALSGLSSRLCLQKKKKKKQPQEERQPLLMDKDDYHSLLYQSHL

- tyrosinase activity (tyrosinase): inhibits tyrosinase activity
Structure (SMILES): CCCCCC/C=C\CCCCCCCC(=O)O [palmitoleic acid]
- inhibitory effect on melanin production (mouse melanoma cells): strong inhibitory effect
